Molecular target: T1, human RORγt (Ligand Binding Domain) (Homo sapiens, UniProt P51449)
T1 construct: purchased Crelux (Planegg, Germany) batch no PC5032-1
T1 sequence (P51449 269-508 limits assumed): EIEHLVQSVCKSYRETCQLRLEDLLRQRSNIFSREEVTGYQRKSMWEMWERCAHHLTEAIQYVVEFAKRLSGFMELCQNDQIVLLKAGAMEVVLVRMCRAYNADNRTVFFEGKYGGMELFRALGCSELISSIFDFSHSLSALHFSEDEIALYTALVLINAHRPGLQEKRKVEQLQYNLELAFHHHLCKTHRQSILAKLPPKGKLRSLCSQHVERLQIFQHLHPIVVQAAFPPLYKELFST
Test: Fluorescence Polarization (FP) Assay
Details: Fluorescence Polarization (FP) Assay; values given as upper bounds of activity ranges; read-out: FP activity range
Description: The activity of the compounds was evaluated using a Fluorescence Polarization (FP) Assay and, in most cases, a Th17 Assay and/or RORγ Reporter assay (also referred to as Gal4 assay). The FP assay is an in vitro assay monitoring binding within the ligand binding pocket. The RORγ and the Th17 assays are both cell-based assays monitoring functional activity of the compound assayed.
The total volume was 25 μl, in a black Perkin Elmer OptiPlate. As negative control, 1 μl DMSO was used. […] The probe is a fluorescently labeled (TAMRA) RORγt ligand identified by Nuevolution with a total molecular weight of 910 g/mole as shown in Graph A in FIG. 1.

| IC50 | SMILES |
| --- | --- |
| < 10000 nM | O=C1CCCN1c1ccc(CNc2ncnc(N3CCCC3c3ccc(C(F)(F)F)cc3)c2F)cc1 (centres unmarked) [Example 137, 1-[4-[[[5-fluoro-6-[2-[4-(trifluoromethyl)phenyl]pyrrolidin-1-yl]pyrimidin-4-yl]amino]methyl]phenyl]pyrrolidin-2-one] |
| < 500 nM | Fc1c(NCc2ccc(-c3nnn[nH]3)cc2)ncnc1N1CCCC1c1ccc(C(F)(F)F)cc1 (centres unmarked) [Example 138, 5-fluoro-N-[[4-(1H-tetrazol-5-yl)phenyl]methyl]-6-[2-[4-(trifluoromethyl)phenyl]pyrrolidin-1-yl]pyrimidin-4-amine] |
| < 2000 nM | Fc1c(NCc2ccccc2)ncnc1N1CCCC1c1ccc(C(F)(F)F)cc1 (centres unmarked) [Example 139, N-benzyl-5-fluoro-6-[2-[4-(trifluoromethyl)phenyl]pyrrolidin-1-yl]pyrimidin-4-amine] |
| < 2000 nM | Fc1c(NCc2cccnc2)ncnc1N1CCCC1c1ccc(C(F)(F)F)cc1 (centres unmarked) [Example 141, 5-fluoro-N-(3-pyridylmethyl)-6-[2-[4-(trifluoromethyl)phenyl]pyrrolidin-1-yl]pyrimidin-4-amine] |
| < 2000 nM | COc1cc(CNc2ncnc(N3CCCC3c3ccc(C(F)(F)F)cc3)c2F)cc(OC)c1 (centres unmarked) [Example 142, N-[(3,5-dimethoxyphenyl)methyl]-5-fluoro-6-[2-[4-(trifluoromethyl)phenyl]pyrrolidin-1-yl]pyrimidin-4-amine] |
| < 2000 nM | O=C1CCCN1c1cccc(CNc2ncnc(N3CCCC3c3ccc(C(F)(F)F)cc3)c2F)c1 (centres unmarked) [Example 143, 1-[3-[[[5-fluoro-6-[2-[4-(trifluoromethyl)phenyl]pyrrolidin-1-yl]pyrimidin-4-yl]amino]methyl]phenyl]pyrrolidin-2-one] |
| < 10000 nM | CNC(=O)c1cccc(CNc2ncnc(N3CCCC3c3ccc(C(F)(F)F)cc3)c2F)c1 (centres unmarked) [Example 144, 3-[[[5-fluoro-6-[2-[4-(trifluoromethyl)phenyl]pyrrolidin-1-yl]pyrimidin-4-yl]amino]methyl]-N-methyl-benzamide] |
| < 10000 nM | CN(C)C(=O)c1cccc(CNc2ncnc(N3CCCC3c3ccc(C(F)(F)F)cc3)c2F)c1 (centres unmarked) [Example 145, 3-[[[5-fluoro-6-[2-[4-(trifluoromethyl)phenyl]pyrrolidin-1-yl]pyrimidin-4-yl]amino]methyl]-N,N-dimethyl-benzamide] |
| < 2000 nM | Fc1c(NCc2cccc(Cn3cncn3)c2)ncnc1N1CCCC1c1ccc(C(F)(F)F)cc1 (centres unmarked) [Example 146, 5-fluoro-N-[[3-(1,2,4-triazol-1-ylmethyl)phenyl]methyl]-6-[2-[4-(trifluoromethyl)phenyl]pyrrolidin-1-yl]pyrimidin-4-amine] |
| < 2000 nM | COCc1cccc(CNc2ncnc(N3CCCC3c3ccc(C(F)(F)F)cc3)c2F)c1 (centres unmarked) [Example 147, 5-fluoro-N-[[3-(methoxymethyl)phenyl]methyl]-6-[2-[4-(trifluoromethyl)phenyl]pyrrolidin-1-yl]pyrimidin-4-amine] |
| < 10000 nM | Fc1c(NCC2CCC2)ncnc1N1CCCC1c1ccc(C(F)(F)F)cc1 (centres unmarked) [Example 151, N-(cyclobutylmethyl)-5-fluoro-6-[2-[4-(trifluoromethyl)phenyl]pyrrolidin-1-yl]pyrimidin-4-amine] |
| < 500 nM | Fc1c(NCC2CCOC2)ncnc1N1CCC[C@@H]1c1ccc(C(F)(F)F)cc1 (stereo partly drawn) [Example 154, 5-fluoro-N-(tetrahydrofuran-3-ylmethyl)-6-[(2R)-2-[4-(trifluoromethyl)phenyl]pyrrolidin-1-yl]pyrimidin-4-amine] |
| < 10000 nM | Fc1c(NCC2CCCCO2)ncnc1N1CCC[C@@H]1c1ccc(C(F)(F)F)cc1 (stereo partly drawn) [Example 155, 5-fluoro-N-(tetrahydropyran-2-ylmethyl)-6-[(2R)-2-[4-(trifluoromethyl)phenyl]pyrrolidin-1-yl]pyrimidin-4-amine] |

| SMILES | IC50 |
| --- | --- |
| Cc1ccc(CNc2ncnc(N3CCCC3c3ccc(C)o3)c2F)cn1 (centres unmarked) [Example 150, 5-fluoro-6-[2-(5-methyl-2-furyl)pyrrolidin-1-yl]-N-[(6-methyl-3-pyridyl)methyl]pyrimidin-4-amine] | < 10000 nM |

Reference: patent US10689383B2, “Optionally fused heterocyclyl-substituted derivatives of pyrimidine useful for the treatment of inflammatory, metabolic, oncologic and autoimmune diseases” (NUEVOLUTION A/S, priority 2014, dated 2020)
